Experimental data from US7932262B2 (Novartis AG, priority 2006, dated 2011).
pEC50, pIC50: −log10 of the molar value.

How the values were obtained:
PC-3 cells = assay: Cell Proliferation Assay (Cell Titer Glo), PC-3 cell line; assay type: cell-based; details: Homo sapiens, PC-3, Cell Proliferation Assay, PC3; read-out: CPEC50 PC3
Outline: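 Cell Titer Glo luminescence, read after fresh medium replaced the dosing medium, gave viability of PC-3 cells plated at 1000 cells/well. Compounds, 1:3 serially diluted in DMSO at 500× and then in medium, were added after 3-5 h adhesion and incubated 3 days at 37° C.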

PDK1 kinase = biological target: T1, PDK1 kinase (Homo sapiens, UniProt O15530); assay: PDK1 Kinase Alpha Screen Assay; assay type: biochemical; details: PDK1 Kinase Alpha Screen Assay; read-out: PDK1 IC50
T1 sequence (O15530 1-556): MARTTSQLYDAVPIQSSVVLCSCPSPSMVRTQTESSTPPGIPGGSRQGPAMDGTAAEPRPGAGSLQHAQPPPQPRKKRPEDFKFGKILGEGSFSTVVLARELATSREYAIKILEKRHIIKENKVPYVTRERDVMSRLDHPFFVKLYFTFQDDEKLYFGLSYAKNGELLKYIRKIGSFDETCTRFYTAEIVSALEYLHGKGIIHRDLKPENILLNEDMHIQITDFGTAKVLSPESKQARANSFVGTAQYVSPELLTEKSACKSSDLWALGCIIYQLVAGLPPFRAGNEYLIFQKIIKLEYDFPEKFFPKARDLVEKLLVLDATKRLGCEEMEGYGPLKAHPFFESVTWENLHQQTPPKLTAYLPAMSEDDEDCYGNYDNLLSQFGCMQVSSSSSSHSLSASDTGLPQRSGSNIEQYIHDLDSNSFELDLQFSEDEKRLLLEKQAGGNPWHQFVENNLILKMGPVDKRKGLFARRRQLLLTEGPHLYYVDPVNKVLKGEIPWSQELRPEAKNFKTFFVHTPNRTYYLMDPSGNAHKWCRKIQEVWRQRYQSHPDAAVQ
Outline: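 Kinase inhibition measured as loss of AlphaScreen signal from antibody recognition of phosphorylated biotin-PDK1-4 peptide. Reactions contain 10 uM ATP and 50 nM peptide, run 3-18 hours before EDTA quench and overnight bead development at room temperature.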

SMILES: c1cc(-c2ccc(NCCN3CCCC3)nc2)c2nc(Nc3ccc4[nH]cnc4c3)ncc2c1 [Compound 393, N-(1H-benzo[d]imidazol-5-yl)-8-(6-(2-(pyrrolidin-1-yl)ethylamino)pyridin-3-yl)quinazolin-2-amine]
- pEC50 (PC-3 cells): > 5.30
- pIC50 (PDK1 kinase): > 5.30

SMILES: COc1cccc(Nc2ncc3cccc(-c4ccc(NCCN5CCCC5)nc4)c3n2)c1 [Compound 395, N-(3-methoxyphenyl)-8-(6-(2-(pyrrolidin-1-yl)ethylamino)pyridin-3-yl)quinazolin-2-amine]
- pEC50 (PC-3 cells): > 5.30
- pIC50 (PDK1 kinase): > 5.30

SMILES: CC(=O)Nc1ccc(Nc2ncc3cccc(-c4ccc(NCCN5CCCC5)nc4)c3n2)cc1 [Compound 396, N-(4-(8-(6-(2-(pyrrolidin-1-yl)ethylamino)pyridin-3-yl)quinazolin-2-ylamino)phenyl)acetamide]
- pEC50 (PC-3 cells): 5.00 to 5.30
- pIC50 (PDK1 kinase): > 5.30

SMILES: N#Cc1cccc(Nc2ncc3cccc(-c4ccc(NCCN5CCCC5)nc4)c3n2)c1 [Compound 397, 3-(8-(6-(2-(pyrrolidin-1-yl)ethylamino)pyridin-3-yl)quinazolin-2-ylamino)benzonitrile]
- pEC50 (PC-3 cells): > 5.30
- pIC50 (PDK1 kinase): > 5.30

SMILES: Clc1cccc(Nc2ncc3cccc(-c4ccc(NCCN5CCCC5)nc4)c3n2)c1 [Compound 398, N-(3-chlorophenyl)-8-(6-(2-(pyrrolidin-1-yl)ethylamino)pyridin-3-yl)quinazolin-2-amine]
- pEC50 (PC-3 cells): > 5.30
- pIC50 (PDK1 kinase): > 5.30

SMILES: O=S(=O)(c1cccc(Nc2ncc3cccc(-c4ccc(NCCN5CCCC5)nc4)c3n2)c1)N1CCOCC1 [Compound 399, N-(3-(morpholinosulfonyl)phenyl)-8-(6-(2-(pyrrolidin-1-yl)ethylamino)pyridin-3-yl)quinazolin-2-amine]
- pEC50 (PC-3 cells): > 5.30
- pIC50 (PDK1 kinase): > 5.30

SMILES: CNC(=O)Cc1ccc(Nc2ncc3cccc(-c4ccc(NCCN5CCCC5)nc4)c3n2)cc1 [Compound 400, N-methyl-2-(4-(8-(6-(2-(pyrrolidin-1-yl)ethylamino)pyridin-3-yl)quinazolin-2-ylamino)phenyl)acetamide]
- pEC50 (PC-3 cells): > 5.30
- pIC50 (PDK1 kinase): > 5.30

SMILES: CNC(=O)Cc1cccc(Nc2ncc3cccc(-c4ccc(NCCN5CCCC5)nc4)c3n2)c1 [Compound 401, N-methyl-2-(3-(8-(6-(2-(pyrrolidin-1-yl)ethylamino)pyridin-3-yl)quinazolin-2-ylamino)phenyl)acetamide]
- pEC50 (PC-3 cells): > 5.30
- pIC50 (PDK1 kinase): > 5.30

SMILES: CS(=O)(=O)c1cccc(Nc2ncc3cccc(-c4ccc(NCCN5CCCC5)nc4)c3n2)c1 [Compound 402, N-(3-(methylsulfonyl)phenyl)-8-(6-(2-(pyrrolidin-1-yl)ethylamino)pyridin-3-yl)quinazolin-2-amine]
- pEC50 (PC-3 cells): 5.00 to 5.30
- pIC50 (PDK1 kinase): > 5.30

SMILES: O=C(c1ccc(Nc2ncc3cccc(-c4ccc(NCCN5CCCC5)nc4)c3n2)cc1)N1CCOCC1 [Compound 403, morpholino(4-(8-(6-(2-(pyrrolidin-1-yl)ethylamino)pyridin-3-yl)quinazolin-2-ylamino)phenyl)methanone]
- pEC50 (PC-3 cells): > 5.30
- pIC50 (PDK1 kinase): > 5.30

SMILES: NS(=O)(=O)c1ccc(Nc2ncc3cccc(-c4cnc(NCCN5CCCC5)c(C(F)(F)F)c4)c3n2)cc1 [Compound 404, 4-(8-(6-(2-(pyrrolidin-1-yl)ethylamino)-5-(trifluoromethyl)pyridin-3-yl)quinazolin-2-ylamino)benzenesulfonamide]
- pEC50 (PC-3 cells): > 5.30
- pIC50 (PDK1 kinase): > 5.30

SMILES: COc1ccc(Oc2cccc3cnc(Nc4ccc(S(N)(=O)=O)cc4)nc23)cn1 [Compound 410, 4-(8-(6-methoxypyridin-3-yloxy)quinazolin-2-ylamino)benzenesulfonamide]
- pEC50 (PC-3 cells): > 5.30
- pIC50 (PDK1 kinase): > 5.30

SMILES: NS(=O)(=O)c1ccc(Nc2ncc3cccc(Oc4ccc(F)nc4)c3n2)cc1 [Compound 413, 4-(8-(6-fluoropyridin-3-yloxy)quinazolin-2-ylamino)benzenesulfonamide]
- pEC50 (PC-3 cells): > 5.30
- pIC50 (PDK1 kinase): > 5.30

SMILES: Nc1ccc(S(=O)(=O)N(CCN2CCCC2)c2ncc3cccc(OC4CCNCC4)c3n2)cc1 [Compound 422, 4-amino-N-(8-(piperidin-4-yloxy)quinazolin-2-yl)-N-(2-(pyrrolidin-1-yl)ethyl)benzenesulfonamide]
- pEC50 (PC-3 cells): 5.00 to 5.30
- pIC50 (PDK1 kinase): 5.00 to 5.30

SMILES: CN1CCN(c2ccc(-c3cccc4cnc(Nc5ccc(N6CCOCC6)nc5)nc34)cn2)CC1 [Compound 423, 8-(6-(4-methylpiperazin-1-yl)pyridin-3-yl)-N-(6-morpholinopyridin-3-yl)quinazolin-2-amine]
- pEC50 (PC-3 cells): > 5.30
- pIC50 (PDK1 kinase): > 5.30

SMILES: c1cc(-c2ccc(NCCN3CCCC3)nc2)c2nc(Nc3ccc(N4CCOCC4)nc3)ncc2c1 [Compound 424, N-(6-morpholinopyridin-3-yl)-8-(6-(2-(pyrrolidin-1-yl)ethylamino)pyridin-3-yl)quinazolin-2-amine]
- pEC50 (PC-3 cells): > 5.30
- pIC50 (PDK1 kinase): > 5.30

SMILES: O=S(=O)(c1ccc(Nc2ncc3cccc(-c4ccc(NCCN5CCCC5)nc4)c3n2)cc1)N1CCOCC1 [Compound 425, N-(4-(morpholinosulfonyl)phenyl)-8-(6-(2-(pyrrolidin-1-yl)ethylamino)pyridine-3-yl)quinazolin-2-amine]
- pEC50 (PC-3 cells): > 5.30
- pIC50 (PDK1 kinase): > 5.30

SMILES: c1ccc(Nc2ncc3cccc(-c4ccc(NCCN5CCCC5)nc4)c3n2)cc1 [Compound 426, N-phenyl-8-(6-(2-(pyrrolidin-1-yl)ethylamino)pyridin-3-yl)quinazolin-2-amine]
- pEC50 (PC-3 cells): > 5.30
- pIC50 (PDK1 kinase): > 5.30

SMILES: N#Cc1ccc(Nc2ncc3cccc(-c4ccc(NCCN5CCCC5)nc4)c3n2)cc1 [Compound 427, 4-(8-(6-(2-(pyrrolidin-1-yl)ethylamino)pyridin-3-yl)quinazolin-2-ylamino)benzonitrile]
- pEC50 (PC-3 cells): > 5.30
- pIC50 (PDK1 kinase): > 5.30

SMILES: Fc1cc(F)cc(Nc2ncc3cccc(-c4ccc(NCCN5CCCC5)nc4)c3n2)c1 [Compound 428, N-(3,5-difluorophenyl)-8-(6-(2-(pyrrolidin-1-yl)ethylamino)pyridin-3-yl)quinazolin-2-amine]
- pEC50 (PC-3 cells): > 5.30
- pIC50 (PDK1 kinase): > 5.30

SMILES: NS(=O)(=O)c1ccc(Nc2ncc3c(Br)ccc(OC4CCNCC4)c3n2)cc1 [Compound 429, 4-(5-bromo-8-(piperidin-4-yloxy)quinazolin-2-ylamino)benzenesulfonamide]
- pEC50 (PC-3 cells): 5.00 to 5.30
- pIC50 (PDK1 kinase): > 5.30

SMILES: O=S(=O)(c1ccc(Nc2ncc3c(Br)ccc(OC4CCNCC4)c3n2)cc1)N1CCOCC1 [Compound 430, 5-bromo-N-(4-(morpholinosulfonyl)phenyl)-8-(piperidin-4-yloxy)quinazolin-2-amine]
- pEC50 (PC-3 cells): > 5.30
- pIC50 (PDK1 kinase): > 5.30

SMILES: Fc1cc(Nc2ncc3cccc(-c4ccc(NCCN5CCCC5)nc4)c3n2)ccc1N1CCOCC1 [Compound 431, N-(3-fluoro-4-morpholinophenyl)-8-(6-(2-(pyrrolidin-1-yl)ethylamino)pyridine-3-yl)quinazolin-2-amine]
- pEC50 (PC-3 cells): > 5.30
- pIC50 (PDK1 kinase): > 5.30

SMILES: CN1CCN(c2ccc(-c3cccc4cnc(Nc5ccc(N6CCOCC6)c(F)c5)nc34)cn2)CC1 [Compound 432, N-(3-fluoro-4-morpholinophenyl)-8-(6-(4-methylpiperazin-1-yl)pyridin-3-yl)quinazolin-2-amine]
- pEC50 (PC-3 cells): > 5.30
- pIC50 (PDK1 kinase): > 5.30

SMILES: Fc1cccc(Nc2ncc3c(Br)ccc(OC4CCNCC4)c3n2)c1 [Compound 433, 5-bromo-N-(3-fluorophenyl)-8-(piperidin-4-yloxy)quinazolin-2-amine]
- pEC50 (PC-3 cells): > 5.30
- pIC50 (PDK1 kinase): > 5.30

SMILES: Fc1ccc(Nc2ncc3c(Br)ccc(OC4CCNCC4)c3n2)cc1 [Compound 434, 5-bromo-N-(4-fluorophenyl)-8-(piperidin-4-yloxy)quinazolin-2-amine]
- pEC50 (PC-3 cells): > 5.30
- pIC50 (PDK1 kinase): > 5.30

SMILES: Brc1ccc(OC2CCNCC2)c2nc(Nc3ccc(N4CCOCC4)cc3)ncc12 [Compound 435, 5-bromo-N-(4-morpholinophenyl)-8-(piperidin-4-yloxy)quinazolin-2-amine]
- pEC50 (PC-3 cells): 5.00 to 5.30
- pIC50 (PDK1 kinase): > 5.30

SMILES: CN1CCN(c2ccc(-c3cccc4cnc(Nc5ccc(C(F)(F)F)nc5)nc34)cn2)CC1 [Compound 436, 8-(6-(4-methylpiperazin-1-yl)pyridin-3-yl)-N-(6-(trifluoromethyl)pyridine-3-yl)quinazolin-2-amine]
- pEC50 (PC-3 cells): > 5.30
- pIC50 (PDK1 kinase): > 5.30

SMILES: O=S(=O)(c1cccc(Nc2ncc3c(Br)ccc(OC4CCNCC4)c3n2)c1)N1CCOCC1 [Compound 437, 5-bromo-N-(3-(morpholinosulfonyl)phenyl)-8-(piperidin-4-yloxy)quinazolin-2-amine]
- pEC50 (PC-3 cells): > 5.30
- pIC50 (PDK1 kinase): 5.00 to 5.30

SMILES: O=C(c1ccc(Nc2ncc3c(Br)ccc(OC4CCNCC4)c3n2)cc1)N1CCOCC1 [Compound 438, (4-(5-bromo-8-(piperidin-4-yloxy)quinazolin-2-ylamino)phenyl)(morpholino)methanone]
- pEC50 (PC-3 cells): > 5.30
- pIC50 (PDK1 kinase): > 5.30
